Tests used:
SK-BR3 = details: 15 nM Pc 4, 5×10^6 cells/mL, 8 J/cm^2; cited from earlier work
[1] = system: cell lines and bone marrow samples; test: Uptake of Pc 4; format: cell-based, murine
Experimental: Photosensitization. Aliquots of a 1.87 mM Pc 4 (kindly provided by Dr. M. E. Kenney) stock solution in dimethyl sulfoxide were kept at -80° C. in autoclaved brown glass vials. Immediately prior to the photosensitization, Pc4 was thawed and diluted in dimethyl formamide to yield a 10 μM working solution. […] Pc 4 was used at 15 nM throughout the experiments.

[2] = system: pluripotent stem cells (c-kit^+,Sca-1^+); test: Uptake of Pc 4, flow cytometry; format: cell-based, murine; details: for Pc 4 content / Pc 4 content per cell volume: 15 nM
Experimental: (§1) In mixing experiments, aliquots of Ly-5.2 BM and cell lines samples were mixed at different ratios. The combined cell concentration of each sample was 1.5×10^7 cells/mL. […] The cell lines were stained with anti-Ly-5.1^FITC. This treatment allowed clear resolution of the relatively small ABE-8.1/2 and BC3A cells from the bone marrow granulocytes. Immediately prior to the analyses, propidium iodide (PI, 0.5 μg/mL) was added to the samples to allow exclusion of dead cells (PI^+) from the analyses. The samples were analyzed in a FACStar^PLUS (BD) that was equipped with an argon ion laser tuned to 488 nm (200 mW) and a dye laser tuned to 610 nm (300 mW). FITC, PE, PI and Pc 4 fluorescence emissions were collected through 530/30, 575/42, 660/10, 670/10 nm band pass filters, respectively.
(§2) Cell size. Microscopic measurements of at least 20 cells were performed using a calibrated micrometer. To determine the cell size of the BM progenitor subsets, the c-kit^+,Sca-1^- and c-kit^+,Sca-1^+ fractions were sorted. The sorted cells were centrifuged and the pellets were resuspended in a 20 μl of HBBS. Samples were deposited onto microscope slides and covered with a cover slip. Cell diameters of 7.7±0.2 (c-kit^+,Sca-1^+), 8.4±0.3 (c-kit^+,Sca-1^-), 10.9±0.2 (BC3A), 11.1±0.2 (ABE-8.1/2), 13.0±0.3 (L1210), 14.2±0.3 (P815), 15.0±0.4 μm (WEHI-3) were obtained.

[3] = system: progenitor cells (c-kit^+,Sca-1^-); test: Uptake of Pc 4, flow cytometry; format: cell-based, murine
Experimental: as §1, §2

HL-60 = details: 15 nM Pc 4, 5×10^6 cells/mL, 8 J/cm^2; cited from earlier work
[4] = system: multidrug resistance (mdr) pump; test: Uptake of Pc 4 by BM in presence of verapamil
Experimental: Uptake of Pc 4. Following a two hour incubation at 37° C. with 15 nM Pc 4, cell line and BM samples were analyzed for Pc 4 uptake by flow cytometry. BM samples were first incubated with anti-c-kit^PE (Pharmingen) and anti-Sca-1^FITC (Pharmingen), to allow analysis of the Pc 4 uptake in the committed progenitor fraction (c-kit^+,Sca-1^-) and the pluripotent stem cell fraction (c-kit^+,Sca-1^+) (Li, C. L. and G. R. Johnson Blood 85:1472 (1995)). Following a 20 minute incubation on ice, and two subsequent washes, the samples were incubated with 15 nM Pc 4. The relative Pc 4 uptake was calculated by subtracting the mean fluorescence signals of the untreated control samples from the mean Pc 4 fluorescence signals.

[5] = system: cell lines (ABE-8.1/2, BC3A, L1210, P815, WEHI-3); test: Survival of cell lines after incubation with Pc 4; format: cell-based, murine; details: Mus musculus, light or radiation study, read-out: surviving fractions of the cell lines after incubation
Experimental: Cell lines and culture conditions. WEHI-3 (murine myelocytic leukemia), L1210 (murine lymphocytic leukemia) and P815 (murine mastocytoma) cells were grown in RPMI 1640 (GibcoBRL, Grand Island, N.Y.) supplemented with 10% FBS. BC3A (murine leukemia) cells were grown in RPMI 1640 supplemented with 10 μM β-mercaptoethanol and 10% FBS; ABE-8.1/2 (murine pre-B lymphoma) cells were grown in DMEM (GibcoBRL)--10 μM β-mercaptoethanol--10% FBS. All cell lines were obtained from the American Type Culture Collection (Rockville, Md.) and were cultured at 37° C. in a humidified 5% CO2 -incubator. Prior to incubation with Pc 4, the cell lines were centrifuged and resuspended in phosphate buffered saline (PBS)--10% FBS, pH 7.4.
Photosensitization. […]
Cell line samples were plated (in triplicate) in a semi-solid medium which consisted of DMEM--20% vol/vol serum (2/3 horse serum, 1/3 FBS)--3 mM glutamine--60 μM β-mercaptoethanol--0.3% wt/vol agar. The samples were incubated at 37° C. in a humidified 5% CO2 -incubator, and colonies consisting of more than 50 cells were counted after nine days.
Statistics. […] Data are expressed as mean values±standard error of the mean (SEM). […] The significance of the differences between experimental values was assessed by means of the Student's t-test.

[6] = 1.5×10^6 cells/ml during incubation
[7] = 1.5×10^7 cells/ml during incubation
[8] = 15 nM, 1.5×10^6 cells/ml during incubation
[9] = 15 nM, 1.5×10^7 cells/ml during incubation

What does the source list for `CN(C)CCC[Si](C)(C)O[Si]1(O)n2c3c4ccccc4c2N=C2N=C(N=c4c5ccccc5c(n41)=NC1=NC(=N3)c3ccccc31)c1ccccc12` (stereo not shown) [Pc 4, hydroxysiloxy-dimethylpropyl-N-dimethyl silicon phthalocyanine]?
surviving fraction of human cells (SK-BR3): < 10^-5; dependence of Pc 4 uptake on cell concentration ([1]; all cell types, 15 nM): inversely correlated with the cell concentration; cellular Pc 4 concentration in BM fractions relative to cell lines ([1]; committed progenitors and pluripotent stem cells, corrected for cell volume): almost twice; time to complete uptake ([1]; murine BM samples): complete after two hours; Pc 4 content [2, 6]: 109 ± 6.5 Mean fluorescence/cell; Pc 4 content per cell volume [2, 6]: 0.50 Mean fluorescence/μm^3; Pc 4 content [2, 7]: 54 ± 6.9 Mean fluorescence/cell; Pc 4 content per cell volume [2, 7]: 0.23 Mean fluorescence/μm^3; difference in Pc 4 content, pluripotent stem cells vs committed progenitors ([2]; 1.5×10^7 cells/mL (p=0.26)): not significant; Pc 4 content [3, 8]: 136 ± 7.8 Mean fluorescence/cell; Pc 4 content per cell volume [3, 8]: 0.44 Mean fluorescence/μm^3; Pc 4 content [3, 9]: 68 ± 8.2 Mean fluorescence/cell; Pc 4 content per cell volume [3, 9]: 0.22 Mean fluorescence/μm^3; cell concentration at which uptake reached a plateau ([3]; 15 nM, BM progenitor cells): 8.0×10^5 cells/mL; difference in Pc 4 content, committed progenitors vs ABE-8.1/2 ([3]; 1.5×10^7 cells/mL (p=0.07)): not quite significant; difference in Pc 4 content, committed progenitors vs BC3A ([3]; 1.5×10^7 cells/mL (p=0.29)): not significant; reduction of Pc 4 uptake ([3]; BM progenitors, from 8.0×10^5 to 1.5×10^7 cells/mL): 1.8 fold; surviving fraction of human cells (HL-60): < 10^-5; effect of verapamil on uptake of Pc 4 ([4]; BM samples, verapamil during incubation): did not increase the uptake; comparison with BPD-DA and benzochlorin ([4]; application with samples containing mdr^+ leukemic cells): compared favorable to BPD-DA; substrate of the multidrug resistance pump ([4]; murine pluripotent stem cells): not a substrate; viability at 0.015 µM [5]: 73 to 100%

Reference: patent publication US6159733A, “Method for photoinactivating malignant cells” (priority 1996, dated 2000)
